Article PMC3681751, “Identification of a Novel Antimicrobial Peptide from Human Hepatitis B Virus Core Protein Arginine-Rich Domain (ARD)” (PLoS Pathogens, 2013)
≈ marks a conversion by molar mass, not a printed value. Residues, ends and D or L forms follow the SMILES beside them.

Tests used:
E. coli = assay: SYTOX Green uptake (membrane permeabilization); type: cell-based, Escherichia coli; settings: 4 µM peptide; 10^7 CFU, 1 µM SYTOX Green, 37°C
Method: (§1) Briefly, bacteria (10^7 CFU) were prepared and mixed with 1 µM SYTOX Green (Invitrogen) for 15 minutes in the dark. […] Melittin (Sigma), the major toxin of bee venom, was used as a positive control to provide maximal permeabilization.

P. aeruginosa NHRI-04 = type: cell-based, Pseudomonas aeruginosa; settings: NHRI-04, 3 h
Text: (§2) Clinical isolates of Pseudomonas aeruginosa (NHRI-01, NHRI-02 and NHRI-04) were obtained through the program of Taiwan Surveillance of Antimicrobial Resistance (TSAR), National Health Research Institutes (NHRI), Taiwan. Acinetobacter baumannii (ATCC 17989, ATCC 17978 CR, ATCC19606, ATCC 19606 CR, TCGH 45530 and TCGH 46709) were obtained from Tzu-Chi Buddhist General Hospital (TCGH) in Taiwan, and clinical isolates (TCGH 45530 and TCGH 46709) were identified using the Vitek system (Biomerieux Vitek, Inc., Hazelwood, MO, USA). A. baumannii is defined as multidrug-resistant, when the organism is resistant to piperacillin, piperacillin-tazobactam, ampicillin/sulbactam, imipenem, ceftazidime, gentamicin, amikacin, tetracycline, chloramphenicol, ciprofloxacin, and cotrimoxazole. Susceptibility to colistin was determined using the broth-dilution method, in accordance with the guidelines of the Clinical and Laboratory Standards Institute (CLSI).
(§3) All peptides were purchased from Yao-Hong Biotechnology Inc. (Taipei, Taiwan). Vendors provided data of peptide characterizations, including HPLC and Mass (data not shown). Antimicrobial activity was determined as described with some modifications as detailed below. Bacteria were grown overnight in Mueller–Hinton broth (Difco) at 37°C, and during the mid-logarithmic phase, bacteria were diluted to 10^6 CFU (colony formation unit)/ml in phosphate buffer (10 mM sodium phosphate and 50 mM sodium chloride, pH 7.2). Peptides were serially diluted in the same buffer. Fifty microliter (µl) of bacteria was mixed with fifty µl of peptides at varying concentrations followed by incubation at 37°C for 3 hours without shaking. At the end of incubation, bacteria were placed on Mueller-Hinton broth agar plates, and allowed growth at 37°C overnight for measurement of minimal bactericidal concentration (MBC). […] All peptides were tested in triplicate.

P. aeruginosa NHRI-01 = type: cell-based, Pseudomonas aeruginosa; settings: colistin-resistant P. aeruginosa of Table 2
Text: as §2, §3

P. aeruginosa NHRI-02 = type: cell-based, Pseudomonas aeruginosa; settings: NHRI-02, 3 h
Text: as §2, §3

K. pneumonia = assay: SYTOX Green uptake (membrane permeabilization); type: cell-based, Klebsiella pneumoniae; settings: 4 µM peptide; 10^7 CFU, 1 µM SYTOX Green, 37°C
Method: as §1

[1] = test system: Staphylococcus aureus ATCC 19636; assay: Sepsis survival model, i.p. inoculation; type: in vivo; settings: 4×10^6 CFU/mouse i.p., n = 10
Method: Three-week old male ICR mice (19 to 21 g) were purchased from BioLASCO (Taiwan). Overnight culture of bacteria in BHI broth (Difco) was subcultured in fresh BHI broth to log phase. Inoculums were diluted in BHI broth to indicated densities. To test the acute toxicity of ARD peptide in vivo, ICR male mice were inoculated intraperitoneally (i.p.) with 10 and 20 mg/kg HBc147-183 in PBS, respectively. Each group contained 5 mice. After peptide injection, the number of dead mice was recorded daily for 7 days post-injection. To test the antimicrobial activity of the ARD peptide in vivo, all mice were inoculated i.p. with Staphylococcus aureus ATCC 19636 (4×10^6 CFU/mouse) in BHI broth. Peptide HBc147-183 (10 mg/kg) was administered i.p. at 1, 1.5 and 2 hours post-inoculation. PBS (10 ml/kg) control was administered at 1 hour post-inoculation. […] Mortality was monitored daily for 7 days post-inoculation. […] The mice were anesthetized first before transferring to the IVIS imaging system (IVIS spectrum), and luminescence was measured with an exposure time of 1 minutes or less. The image system measured the number of photons and translated the data to false color images that depicted the region of strong luminescence with red, moderate luminescence with yellow and green, and mild luminescence with blue. […] Total flux (RLU) of region of interest (ROI) was quantified by the IVIS imaging software.

HepG2 cells = assay: Cytotoxicity, MTT assay; type: cell-based, human; settings: 1 hour at 37°C; HBc147-183 at 100 µM, melittin at 3.125 µM; triplicates
Method: (§4) Cytotoxicity was measured for HepG2, Huh7, HEK293, and Vero cells by MTT assay. Cells were seeded at 10^4 cells/well in a 96-well plate and serial dilutions of peptides were added into each well. PBS was used as a negative control and melittin was used as a positive control. After 1 hour of incubation, the medium were replaced by fresh medium containing 10% MTT solution (Promega), and the plate was incubated for 4 hours in 5% CO2 at 37°C. The absorbance at the wavelength of 595 nm was measured by an ELISA reader (Bio-Rad model 680).

Huh7 cells = assay: Cytotoxicity, MTT assay; type: cell-based, human; settings: 1 hour at 37°C; HBc147-183 at 100 µM, melittin at 3.125 µM; triplicates
Method: as §4

HEK293 cells = assay: Cytotoxicity, MTT assay; type: cell-based, human; settings: 1 hour at 37°C; HBc147-183 at 100 µM, melittin at 3.125 µM; triplicates
Method: as §4

SMILES: CC(C)[C@H](NC(=O)[C@@H](NC(=O)[C@@H](N)[C@@H](C)O)C(C)C)C(=O)N[C@@H](CCCNC(=N)N)C(=O)N[C@@H](CCCNC(=N)N)C(=O)N[C@@H](CCCNC(=N)N)C(=O)NCC(=O)N[C@@H](CCCNC(=N)N)C(=O)N[C@@H](CO)C(=O)N1CCC[C@H]1C(=O)N[C@@H](CCCNC(=N)N)C(=O)N[C@@H](CCCNC(=N)N)C(=O)N[C@@H](CCCNC(=N)N)C(=O)N[C@H](C(=O)N1CCC[C@H]1C(=O)N[C@@H](CO)C(=O)N1CCC[C@H]1C(=O)N[C@@H](CCCNC(=N)N)C(=O)N[C@@H](CCCNC(=N)N)C(=O)N[C@@H](CCCNC(=N)N)C(=O)N[C@@H](CCCNC(=N)N)C(=O)N[C@@H](CO)C(=O)N[C@@H](CCC(N)=O)C(=O)N[C@@H](CO)C(=O)N1CCC[C@H]1C(=O)N[C@@H](CCCNC(=N)N)C(=O)N[C@@H](CCCNC(=N)N)C(=O)N[C@@H](CCCNC(=N)N)C(=O)N[C@@H](CCCNC(=N)N)C(=O)N[C@@H](CO)C(=O)N[C@@H](CCC(N)=O)C(=O)N[C@@H](CO)C(=O)N[C@@H](CCCNC(=N)N)C(=O)N[C@@H](CCC(=O)O)C(=O)N[C@@H](CO)C(=O)N[C@@H](CCC(N)=O)C(=O)N[C@@H](CS)C(=O)O)[C@@H](C)O [HBc147-183] (H-TVVRRRGRSPRRRTPSPRRRRSQSPRRRRSQSRESQC-OH; N-terminus and C-terminus assumed)
- Membrane permeabilization (SYTOX Green uptake) (E. coli): not able to induce membrane permeabilization
- MBC (P. aeruginosa NHRI-04): 18.36 µg/mL (≈ 4 µM)
- MBC against colistin-resistant P. aeruginosa (P. aeruginosa NHRI-01): > 16 µM
- MBC against colistin-sensitive P. aeruginosa (P. aeruginosa NHRI-02): 4 µM (≈ 18.4 µg/mL)
- Membrane permeabilization (SYTOX Green uptake) (K. pneumonia): not able to induce membrane permeabilization
- Survival rate after 7 days ([1]; 10 mg/kg i.p. at 1.5 h post-inoculation): 70%
- Survival rate after 7 days ([1]; 10 mg/kg i.p. at 2 h post-inoculation (peak of bacterial load in blood)): 40%
- Cell viability / cytotoxicity (MTT) (HepG2 cells): low level of cytotoxicity
- Cell viability / cytotoxicity (MTT) (Huh7 cells): low level of cytotoxicity
- Cell viability / cytotoxicity (MTT) (HEK293 cells): low level of cytotoxicity
